From patent publication US6924309B2 (Children, Youth and Women's Health Service Incorporated, priority 1999, dated 2005)
Like-named read-outs stand apart in the source and are kept apart here.

Experiment: Petri-dish thin film autoxidation of arachidonic acid with thia fatty acids and sulfides (HPLC)
Conditions: for Arachidonic acid (%) recovered following autoxidation: arachidonic acid alone
Description: A stock solution in dichioromethane (2 ml) containing arachidonic acid 1 (18 mg) and 3-[(3Z,6Z)-nona-3,6dienylthio]propionic acid 106 (18 mg) was prepared with lauric acid (18 mg) as an internal standard. Samples of the stock solution (100 μl) were added to glass Petri-dishes followed by ethanol (400 μl). After evaporation of the solvent, a well-distributed thin film was formed on each Petri-dish. The Petri-dishes were placed in a desiccator, which was then evacuated, filled with oxygen and stored in the darkness. Dishes were removed from the desiccator after 1, 2, 3, 5 and 7 days. The mixture on each dish was redissolved in diethyl ether and transferred to a 2 ml vial. After evaporation of the solvent, the residue was dissolved in the HPLC mobile phase (100 μl) and 10% of the solution was analysed by HPLC using a reverse phase column (octadecylsilane) (4.6 mm×250 mm, 3 μm) and a refractive index detector.
Autoxidation of arachidonic acid was conducted in the presence of compound 19 and lauric acid. Stock solutions of arachidonic acid, compound 19 and lauric acid in dichloromethane with equal concentrations were added to a 25 ml round-bottomed flask, and the solvent was evaporated to leave a thin film on the internal surface of the flask. The flask was then filled with oxygen and kept in the dark. The percentages of arachidonic acid and compound 19 remaining after 7 days were measured by HPLC. The same assay was carried out simultaneously with several flasks but the results were not reproducible. The variation was attributed to differences in oxygen concentration and the surface area of the thin films formed in the flasks. Therefore, in order to establish a reproducible assay for the analysis of the autoxidation of arachidonic acid, Petri-dishes with uniform size (80 mm in diameter) were used instead of flasks for thin film formation and the oxidation was carried out by placing the Petri-dishes in a dessicator filled with oxygen. To assess this method, thin firms of arachidonic acid with lauric acid as a standard were prepared on six Petri-dishes using identical treatment, and then subjected to oxidation in the same dessicator filled with oxygen. After 24 h, the percentage of arachidonic acid recovered following autoxidation in each Petri-dish was determined by HPLC. […] The advantage of using a Petri-dish over a flask is that the thin films on each Petri-dish are spread over the same area, and each Petri-dish is exposed to oxygen to the same extent.
Using the Petri-dish assay method, the effects of the thia PUFAs and sulfides 106 and 108-111, along with compounds 18, 19 and 3-[(Z,Z,Z)-(octadeca-9,12,15-trienylthio)] propionic acid 112 which were available in the laboratory, on the autoxidation of arachidonic acid, were examined. In addition, the stability of these compounds in the presence of arachidonic acid was also investigated. Arachidonic acid and lauric acid as a standard were mixed with each sulfur compound at different ratios and the mixtures were subjected to thin film autoxidation. The mixtures were analysed by HPLC after 1,2,3,5 and 7 days.

[1] = 1:1 ratio with arachidonic acid
[2] = compound at one-tenth that of arachidonic acid
[3] = ratio arachidonic acid:compound 1:1, 1 day
[4] = ratio arachidonic acid:compound 1:1, 2 days
[5] = ratio arachidonic acid:compound 1:1, 3 days
[6] = ratio arachidonic acid:compound 1:1, 5 days
[7] = ratio arachidonic acid:compound 1:1, 7 days
[8] = ratio arachidonic acid:compound 2:1, 1 day
[9] = ratio arachidonic acid:compound 2:1, 2 days
[10] = ratio arachidonic acid:compound 2:1, 3 days
[11] = ratio arachidonic acid:compound 2:1, 5 days
[12] = ratio arachidonic acid:compound 2:1, 7 days
[13] = ratio arachidonic acid:compound 10:1, 1 day
[14] = ratio arachidonic acid:compound 10:1, 2 days
[15] = ratio arachidonic acid:compound 10:1, 3 days
[16] = ratio arachidonic acid:compound 10:1, 5 days
[17] = ratio arachidonic acid:compound 10:1, 7 days

SMILES | Antioxidant effect on autoxidation of arachidonic acid (in words) | Antioxidant effect on autoxidation of arachidonic acid (in words) [1] | Antioxidant effect on autoxidation of arachidonic acid (in words) [2] | Arachidonic acid (%) recovered following autoxidation in the presence of the compound [3] | Compound (%) recovered following autoxidation with arachidonic acid [3] | Arachidonic acid (%) recovered following autoxidation in the presence of the compound [4] | Compound (%) recovered following autoxidation with arachidonic acid [4] | Arachidonic acid (%) recovered following autoxidation in the presence of the compound [5] | Compound (%) recovered following autoxidation with arachidonic acid [5] | Arachidonic acid (%) recovered following autoxidation in the presence of the compound [6] | Compound (%) recovered following autoxidation with arachidonic acid [6] | Arachidonic acid (%) recovered following autoxidation in the presence of the compound [7] | Compound (%) recovered following autoxidation with arachidonic acid [7] | Arachidonic acid (%) recovered following autoxidation in the presence of the compound [13] | Compound (%) recovered following autoxidation with arachidonic acid [13] | Arachidonic acid (%) recovered following autoxidation in the presence of the compound [14] | Compound (%) recovered following autoxidation with arachidonic acid [14] | Arachidonic acid (%) recovered following autoxidation in the presence of the compound [15] | Arachidonic acid (%) recovered following autoxidation in the presence of the compound [16] | Arachidonic acid (%) recovered following autoxidation in the presence of the compound [17] | other results
CCCCC/C=C\C/C=C\C/C=C\C/C=C\CCCC(=O)O [Arachidonic acid, arachidonic acid, reference compound] | – | – | – | – | – | – | – | – | – | – | – | – | – | – | – | – | – | – | – | – | Arachidonic acid (%) recovered following autoxidation (1 day): 91%; Arachidonic acid (%) recovered following autoxidation (2 days): 20%; Arachidonic acid (%) recovered following autoxidation (3 days): 16%; Arachidonic acid (%) recovered following autoxidation (5 days): 12%
CC/C=C\C/C=C\CCSCCC(=O)O [Compound 106] | effective antioxidants | almost complete prevention of autoxidation | very slow over the first 3 days | 99% | 98% | 98% | 96% | 99% | 98% | 100% | 97% | 101% | 98% | 101% | 94% | 101% | 84% | 99% | 79% | 16% | Arachidonic acid (%) recovered following autoxidation in the presence of the compound [8]: 98%; Compound (%) recovered following autoxidation with arachidonic acid [8]: 97%; Arachidonic acid (%) recovered following autoxidation in the presence of the compound [9]: 99%; Compound (%) recovered following autoxidation with arachidonic acid [9]: 98%; Arachidonic acid (%) recovered following autoxidation in the presence of the compound [10]: 98%; Compound (%) recovered following autoxidation with arachidonic acid [10]: 97%; Arachidonic acid (%) recovered following autoxidation in the presence of the compound [11]: 99%; Compound (%) recovered following autoxidation with arachidonic acid [11]: 97%; Arachidonic acid (%) recovered following autoxidation in the presence of the compound [12]: 99%; Compound (%) recovered following autoxidation with arachidonic acid [12]: 100%; Compound (%) recovered following autoxidation with arachidonic acid [15]: 59%
CCCCC/C=C\C/C=C\C/C=C\C/C=C\CCCCSCCC [Compound 110, propyl(all-Z)-eicosa-5,8,11,14-tetraenylpropyl sulfide] | – | effectively inhibit | still effective antioxidiants | – | – | – | – | 100% | 99% | – | – | 100% | 100% | 97% | 85% | 89% | 22% | 67% | 24% | 10% | –
CCCCCCCCCCCCCCSCCC [Compound 111, propyltetradecyl sulfide] | – | effectively inhibit | still effective antioxidiants | 100% | 101% | 98% | 91% | 98% | 92% | 98% | 92% | 97% | 90% | 99% | 81% | 99% | 63% | 97% | 68% | 17% | Compound (%) recovered following autoxidation with arachidonic acid [15]: 38%
CC/C=C\C/C=C\C/C=C\CCCCCCCCSCCC(=O)O [Compound 112, 3-[(Z,Z,Z)-(octadeca-9,12,15-trienylthio)]-propionic acid] | effective antioxidants | effective as an antioxidant | less effective than either compound 19 or 106 | 100% | 100% | 99% | 98% | 98% | 97% | 99% | 97% | 93% | 86% | 82% | 25% | 33% | – | 17% | 4% | – | –
